Measurements: patent US20250136559A1, “SMO MODULATOR COMPOUNDS” (OMASS THERAPEUTICS LIMITED, priority 2022, published 2025)

What was measured:
Type in all cases: cell-based
mouse SMO^WT = biological target: T1, mouse SMO^WT (Mus musculus, UniProt P56726); assay: Mouse assay: Gli1 qPCR in MEF cells stably expressing mouse SMO WT; conditions: mSHh-treated, 24 hours; for IC50: Gli1 inhibition by qPCR, read-out: Mouse WT pIC50 (converted); for Mouse WT % Inh: percentage Gli1 inhibition
T1 construct: expressed in transfected cells
T1 sequence (P56726 33-793): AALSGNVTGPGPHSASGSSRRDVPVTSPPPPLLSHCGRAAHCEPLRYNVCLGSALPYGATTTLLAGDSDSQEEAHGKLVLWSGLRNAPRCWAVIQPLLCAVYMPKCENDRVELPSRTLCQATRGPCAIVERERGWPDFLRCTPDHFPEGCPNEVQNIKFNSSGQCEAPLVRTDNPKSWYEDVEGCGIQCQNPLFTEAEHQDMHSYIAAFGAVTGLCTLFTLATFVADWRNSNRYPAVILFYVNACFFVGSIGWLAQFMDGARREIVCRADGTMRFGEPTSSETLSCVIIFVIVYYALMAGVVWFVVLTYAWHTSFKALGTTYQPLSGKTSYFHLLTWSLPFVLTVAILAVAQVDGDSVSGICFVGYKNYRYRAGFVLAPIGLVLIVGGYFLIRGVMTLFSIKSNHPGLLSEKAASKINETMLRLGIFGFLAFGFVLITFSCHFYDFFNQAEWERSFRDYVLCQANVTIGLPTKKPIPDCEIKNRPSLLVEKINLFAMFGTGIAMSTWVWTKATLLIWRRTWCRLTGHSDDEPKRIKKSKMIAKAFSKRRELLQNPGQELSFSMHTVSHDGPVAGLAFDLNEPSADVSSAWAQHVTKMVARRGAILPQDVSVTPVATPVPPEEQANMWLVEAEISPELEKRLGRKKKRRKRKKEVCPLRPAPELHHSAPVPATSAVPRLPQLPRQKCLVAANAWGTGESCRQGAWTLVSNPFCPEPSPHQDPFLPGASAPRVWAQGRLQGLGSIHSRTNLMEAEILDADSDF
Method: (§1) Cell culture. All materials were purchased from Sigma-Aldrich, unless otherwise stated.
(§2) Compound treatment. […] After 1 hour incubation, cells were treated with assay medium containing mSHh prepared at 2.5× of final assay concentrations specified in the text and incubated for a further 24 hours at 37′C in a humidified 95% air/5% CO2 atmosphere prior to qPCR analysis.
(§3) Cell lysis and one-step qPCR. The Cells-to-CT™ 1-Step TaqMan® Kit was used in conjunction with TaqMan primer-probe assays for the detection of Gli1 (FAM, Mm00494654_m1) and Gusb (VIC, Mm01197698_m1) genes (all purchased from Life Technologies). Following 24 hours cell treatment, spent medium was removed and cells were washed with PBS before the application of lysis and stop solution as per manufacturer's instructions. The qPCR reactions were run in a 384-well PCR plate using master mix prepared according to manufacturer's instructions and cell lysate samples from treatment wells. Real-time PCR amplification was detected using the Bio-Rad CFX384 Touch PCR system. Four experimental replicates (two cell replicates and two qPCR replicates) were performed for each compound concentration tested. Real-time data were analysed using the CFX Maestro software (Bio-Rad) and obtained expression values were converted to percentage Gli1 inhibition by normalising to the average Gli1 expression of mSHh-treated control samples.

mouse SMO^D473H = biological target: T2, mouse SMO^D473H (Mus musculus, UniProt P56726, D477H); assay: Mouse assay: Gli1 qPCR in MEF cells stably expressing mouse SMO D473H; conditions: mSHh-treated, 24 hours; for IC50: Gli1 inhibition by qPCR, read-out: Mouse D473H pIC50 (converted); for Mouse D473H % Inh: percentage Gli1 inhibition
T2 construct: expressed in transfected cells
T2 sequence (P56726 33-793 D477H): as the sequence (P56726 33-793) above, with D445H counted along it
Method: as §1, §2, §3

mouse SMO^W535L = biological target: T3, mouse SMO^W535L (Mus musculus, UniProt P56726, W539L); assay: Mouse assay: Gli1 qPCR in MEF cells stably expressing mouse SMO W535L; conditions: mSHh-treated, 24 hours; for IC50: Gli1 inhibition by qPCR, read-out: Mouse W535L pIC50 (converted); for Mouse W535L % Inh: percentage Gli1 inhibition
T3 construct: expressed in transfected cells
T3 sequence (P56726 33-793 W539L): as the sequence (P56726 33-793) above, with W507L counted along it
Method: as §1, §2, §3

SMILES | IC50 (mouse SMO^WT) | Mouse WT % Inh (mouse SMO^WT) | IC50 (mouse SMO^D473H) | Mouse D473H % Inh (mouse SMO^D473H) | IC50 (mouse SMO^W535L) | Mouse W535L % Inh (mouse SMO^W535L)
CN(C)c1nnc(-c2ccc(NC(=O)c3cccc(CN4CCS(=O)(=O)CC4)c3)cc2)o1 [Example 4-9, N-[4-[5-(Dimethylamino)-1,3,4-oxadiazol-2-yl]phenyl]-3-[(1,1-dioxo-1,4-thiazinan-4-yl)methyl]benzamide] | 39.8 nM | 99.6% | 316 nM | 99.1% | 794 nM | 70.0%
COc1cccc(Cc2n[nH]c(-c3ccc(NC(=O)c4cccc(CN5CCS(=O)(=O)CC5)c4)cc3)n2)c1 [Example 3-22, 3-[(1,1-Dioxo-1,4-thiazinan-4-yl)methy]-N-[4-[5-[(3-methoxyphenyl)methyl]-1H-1,2,4-triazol-3-yl]phenyl]benzamide] | 7.94 nM | 98.5% | 63.1 nM | 98.2% | 31.6 nM | 60.1%
CC1(C)CN(Cc2cccc(C(=O)Nc3ccc(-c4nc(C5CC5)n[nH]4)cc3)c2)CCS1(=O)=O [Example 1-3, N-[4-(3-cyclopropyl-1H-1,2,4-triazol-5-yl)phenyl]-3-[(2,2-dimethyl-1,1-dioxo-1,4-thiazinan-4-yl)methyl]benzamide] | 20 nM | 99.4% | 63.1 nM | 99.7% | 158 nM | 62.6%
O=C(Nc1ccc(-c2nc(CC3CC3)n[nH]2)cc1)c1cccc(CN2CCS(=O)(=O)CC2)c1 [Example 3-7, N-[4-[3-(Cyclopropylmethyl)-1H-1,2,4-triazol-5-yl]phenyl]-3-[(1,1-dioxo-1,4-thiazinan-4-yl)methyl]benzamide] | 25.1 nM | 98.5% | 200 nM | 97.3% | 200 nM | 70.7%
Cc1oc(-c2ccc(NC(=O)c3ccc(Cl)c(CN4CCS(=O)(=O)CC4)c3)cn2)nc1C1CC1 [Example 5-2, 4-Chloro-N-[6-(4-cyclopropyl-5-methyl-1,3-oxazol-2-yl)pyridin-3-yl]-3-[(1,1-dioxo-1,4-thiazinan-4-yl)methyl]benzamide] | 2 nM | 98.8% | 7.94 nM | 98.1% | 63.1 nM | 82.7%
Cc1ccc(Cc2n[nH]c(-c3ccc(NC(=O)c4cccc(CN5CCS(=O)(=O)CC5)c4)cc3)n2)cc1 [Example 3-18, 3-[(1,1-Dioxo-1,4-thiazinan-4-yl)methyl]-N-[4-[5-[(4-methylphenyl)methyl]-1H-1,2,4-triazol-3-yl]phenyl]benzamide] | 3.16 nM | 98.5% | 79.4 nM | 98.1% | 25.1 nM | 65.7%
Cl.O=C(Nc1ccc(-c2nc(C3CCC3)n[nH]2)cc1)c1cccc(CN2CCS(=O)(=O)CC2)c1 [Example 3-4, N-[4-(3-Cyclobutyl-1H-1,2,4-triazol-5-yl)phenyl]-3-[(1,1-dioxo-1,4-thiazinan-4-yl)methyl]benzamide] | 25.1 nM | 98.0% | 200 nM | 97.7% | 200 nM | 63.0%
CC(C)c1n[nH]c(-c2ccc(NC(=O)c3cccc(CN4CCS(=O)(=O)CC4)c3)cc2)n1.Cl [Example 3-1, 3-[(1,1-dioxo-1,4-thiazinan-4-yl)methyl]-N-[4-(3-propan-2-yl-1H-1,2,4-triazol-5-yl)phenyl]benzamide] | 20 nM | 99.1% | 158 nM | 96.6% | 200 nM | 77.1%
O=C(Nc1ccc(-c2nc(-c3ccc(COc4ccccc4F)cc3)n[nH]2)cc1)c1cccc(CN2CCS(=O)(=O)CC2)c1 [Example 3-14, 3-[(1,1-Dioxo-1,4-thiazinan-4-yl)methy]-N-[4-[3-[4-[(2-fluorophenoxy)methyl]phenyl]-1H-1,2,4-triazol-5-yl]phenyl]benzamide] | 39.8 nM | 97.3% | 251 nM | 95.2% | 631 nM | 50.9%
O=C(Nc1ccc(-c2noc(Cc3ccc(Cl)cc3)n2)cc1)c1cccc(CN2CCS(=O)(=O)CC2)c1 [Example 4-18, N-[4-[5-[(4-Chlorophenyl)methyl]-1,2,4-oxadiazol-3-yl]phenyl]-3-[(1,1-dioxo-1,4-thiazinan-4-yl)methyl]benzamide] | 2.51 nM | 98.7% | 15.8 nM | 99.2% | 39.8 nM | 82.7%
